Laboratory results reported in PMC9492542, “Brain-restricted mTOR inhibition with binary pharmacology” (Nature, 2022).
Like-named read-outs stand apart in the source and are kept apart here.

Key:
476 purified kinases [1] = biological target: 476 purified kinases (Homo sapiens, UniProt Q9UKI8)
Experimental: (§1) In vitro kinase inhibition assays were performed by SelectScreen Services (Thermo Fisher Scientific) using either Z’-LYTE (mTOR, Src, Csk, EGFR, HER2 and HGK), Adapta (LRRK2) or LanthaScreen (DDR2) assay format (standardized protocols can be accessed on the SelectScreen website: https://www.thermofisher.com/us/en/home/products-and-services/services/custom-services/screening-and-profiling-services/selectscreen-profiling-service/selectscreen-kinase-profiling-service.html. When indicated, recombinant FKBP12 protein was added to the assay mixture to a final concentration of 10 µM.

476 purified kinases [2] = biological target: 476 purified kinases (Homo sapiens, UniProt Q13873)
Experimental: as §1

476 purified kinases [3] = biological target: 476 purified kinases (Homo sapiens, UniProt Q9UEW8)
Experimental: as §1

476 purified kinases [4] = biological target: 476 purified kinases (Homo sapiens, UniProt Q00535); conditions: ZLYTE
Experimental: as §1

476 purified kinases [5] = biological target: 476 purified kinases (Homo sapiens, UniProt O75747)
Experimental: as §1

476 purified kinases [6] = biological target: 476 purified kinases (Homo sapiens, UniProt Q9H2X6); conditions: ZLYTE
Experimental: as §1

476 purified kinases [7] = biological target: 476 purified kinases (Homo sapiens, UniProt Q96GX5)
Experimental: as §1

476 purified kinases [8] = biological target: 476 purified kinases (Homo sapiens, UniProt P06493); conditions: ZLYTE
Experimental: as §1

476 purified kinases [9] = biological target: 476 purified kinases (Homo sapiens, UniProt Q14004)
Experimental: as §1

476 purified kinases [10] = biological target: 476 purified kinases (Homo sapiens, UniProt P25098); conditions: ZLYTE
Experimental: as §1

476 purified kinases [11] = biological target: 476 purified kinases (Homo sapiens, UniProt Q96SB4); conditions: ZLYTE
Experimental: as §1

476 purified kinases [12] = biological target: 476 purified kinases (Homo sapiens, UniProt P19525)
Experimental: as §1

476 purified kinases [13] = biological target: 476 purified kinases (Homo sapiens, UniProt P22612)
Experimental: as §1

476 purified kinases [14] = biological target: 476 purified kinases (Homo sapiens, UniProt P52564, S207E/T211E)
Experimental: as §1

476 purified kinases [15] = biological target: 476 purified kinases (Homo sapiens, UniProt P11802); conditions: Adapta
Experimental: as §1

476 purified kinases [16] = biological target: 476 purified kinases (Homo sapiens, UniProt Q14012); conditions: Adapta
Experimental: as §1

476 purified kinases [17] = biological target: 476 purified kinases (Homo sapiens, UniProt O75716)
Experimental: as §1

476 purified kinases [18] = biological target: 476 purified kinases (Homo sapiens, UniProt O00238)
Experimental: as §1

476 purified kinases [19] = biological target: 476 purified kinases (Homo sapiens, UniProt P48729); conditions: ZLYTE
Experimental: as §1

476 purified kinases [20] = biological target: 476 purified kinases (Homo sapiens, UniProt P06241); conditions: ZLYTE
Experimental: as §1

476 purified kinases [21] = biological target: 476 purified kinases (Homo sapiens, UniProt P22694)
Experimental: as §1

476 purified kinases [22] = biological target: 476 purified kinases (Homo sapiens, UniProt P35626); conditions: ZLYTE
Experimental: as §1

476 purified kinases [23] = biological target: 476 purified kinases (Homo sapiens, UniProt Q13237); conditions: ZLYTE
Experimental: as §1

476 purified kinases [24] = biological target: 476 purified kinases (Homo sapiens, UniProt Q99558)
Experimental: as §1

476 purified kinases [25] = biological target: 476 purified kinases (Homo sapiens, UniProt P35916); conditions: ZLYTE
Experimental: as §1

476 purified kinases [26] = biological target: 476 purified kinases (Homo sapiens, UniProt Q13705)
Experimental: as §1

476 purified kinases [27] = biological target: 476 purified kinases (Homo sapiens, UniProt O43293); conditions: ZLYTE
Experimental: as §1

476 purified kinases [28] = biological target: 476 purified kinases (Homo sapiens, UniProt Q96S53)
Experimental: as §1

476 purified kinases [29] = biological target: 476 purified kinases (Homo sapiens, UniProt Q86UE8)
Experimental: as §1

476 purified kinases [30] = biological target: 476 purified kinases (Homo sapiens, UniProt Q16513)
Experimental: as §1

476 purified kinases [31] = biological target: 476 purified kinases (Homo sapiens, UniProt P43405); conditions: ZLYTE
Experimental: as §1

476 purified kinases [32] = biological target: 476 purified kinases (Homo sapiens, UniProt Q99683)
Experimental: as §1

476 purified kinases [33] = biological target: 476 purified kinases (Homo sapiens, UniProt Q99755)
Experimental: as §1

476 purified kinases [34] = biological target: 476 purified kinases (Homo sapiens, UniProt O95819); conditions: ZLYTE
Experimental: as §1

476 purified kinases [35] = biological target: 476 purified kinases (Homo sapiens, UniProt Q8N4C8); conditions: ZLYTE
Experimental: as §1

Chain of 476 purified kinases (Homo sapiens, UniProt P11802) (P11802 whole entry): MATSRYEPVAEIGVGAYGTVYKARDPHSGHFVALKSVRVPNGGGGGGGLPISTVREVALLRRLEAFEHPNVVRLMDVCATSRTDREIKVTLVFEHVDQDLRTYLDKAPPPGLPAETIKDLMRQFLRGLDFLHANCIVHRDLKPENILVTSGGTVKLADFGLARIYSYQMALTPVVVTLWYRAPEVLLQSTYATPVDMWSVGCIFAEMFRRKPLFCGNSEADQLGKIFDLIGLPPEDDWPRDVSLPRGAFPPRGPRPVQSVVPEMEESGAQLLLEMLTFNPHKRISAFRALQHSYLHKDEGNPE
Chain of 476 purified kinases (Homo sapiens, UniProt Q00535) (Q00535 whole entry): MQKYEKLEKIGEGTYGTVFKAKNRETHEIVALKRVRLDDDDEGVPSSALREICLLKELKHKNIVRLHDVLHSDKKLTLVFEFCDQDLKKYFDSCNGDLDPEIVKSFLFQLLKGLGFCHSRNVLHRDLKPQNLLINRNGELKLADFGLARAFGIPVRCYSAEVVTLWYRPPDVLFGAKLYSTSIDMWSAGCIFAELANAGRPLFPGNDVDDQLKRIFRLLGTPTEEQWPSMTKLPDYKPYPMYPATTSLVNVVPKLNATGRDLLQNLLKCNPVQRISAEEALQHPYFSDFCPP
Chain of 476 purified kinases (Homo sapiens, UniProt Q9H2X6) (Q9H2X6 whole entry): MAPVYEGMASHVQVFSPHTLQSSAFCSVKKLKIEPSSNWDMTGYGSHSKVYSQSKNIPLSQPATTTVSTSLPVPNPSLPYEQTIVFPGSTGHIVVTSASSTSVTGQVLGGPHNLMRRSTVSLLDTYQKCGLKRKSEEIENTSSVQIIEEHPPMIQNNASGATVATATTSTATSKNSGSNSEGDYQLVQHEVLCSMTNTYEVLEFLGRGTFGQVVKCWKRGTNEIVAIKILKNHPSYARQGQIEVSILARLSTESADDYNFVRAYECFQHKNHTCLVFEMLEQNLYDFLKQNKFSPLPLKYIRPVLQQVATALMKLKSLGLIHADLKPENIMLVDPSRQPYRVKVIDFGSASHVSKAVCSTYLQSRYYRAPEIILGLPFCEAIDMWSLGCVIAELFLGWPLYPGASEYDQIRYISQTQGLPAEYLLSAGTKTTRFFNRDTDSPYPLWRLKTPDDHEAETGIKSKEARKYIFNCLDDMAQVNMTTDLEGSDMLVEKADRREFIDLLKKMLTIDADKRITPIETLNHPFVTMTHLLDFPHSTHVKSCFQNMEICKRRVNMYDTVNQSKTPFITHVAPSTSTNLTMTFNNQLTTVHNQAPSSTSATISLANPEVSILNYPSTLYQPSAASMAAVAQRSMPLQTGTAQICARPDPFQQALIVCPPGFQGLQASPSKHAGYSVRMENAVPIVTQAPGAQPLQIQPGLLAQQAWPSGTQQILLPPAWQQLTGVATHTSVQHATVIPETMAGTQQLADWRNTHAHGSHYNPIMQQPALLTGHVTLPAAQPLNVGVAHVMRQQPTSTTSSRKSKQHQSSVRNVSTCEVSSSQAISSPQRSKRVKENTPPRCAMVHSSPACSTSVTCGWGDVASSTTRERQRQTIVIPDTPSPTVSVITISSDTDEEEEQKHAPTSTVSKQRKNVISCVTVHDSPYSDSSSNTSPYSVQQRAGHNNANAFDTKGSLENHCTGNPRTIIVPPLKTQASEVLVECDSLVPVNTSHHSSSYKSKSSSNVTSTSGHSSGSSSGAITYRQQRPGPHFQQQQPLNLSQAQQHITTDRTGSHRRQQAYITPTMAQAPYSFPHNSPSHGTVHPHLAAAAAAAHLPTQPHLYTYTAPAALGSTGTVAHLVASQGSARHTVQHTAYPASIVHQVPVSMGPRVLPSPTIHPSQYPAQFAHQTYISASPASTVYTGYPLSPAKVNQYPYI
Chain of 476 purified kinases (Homo sapiens, UniProt P19525) (P19525 whole entry): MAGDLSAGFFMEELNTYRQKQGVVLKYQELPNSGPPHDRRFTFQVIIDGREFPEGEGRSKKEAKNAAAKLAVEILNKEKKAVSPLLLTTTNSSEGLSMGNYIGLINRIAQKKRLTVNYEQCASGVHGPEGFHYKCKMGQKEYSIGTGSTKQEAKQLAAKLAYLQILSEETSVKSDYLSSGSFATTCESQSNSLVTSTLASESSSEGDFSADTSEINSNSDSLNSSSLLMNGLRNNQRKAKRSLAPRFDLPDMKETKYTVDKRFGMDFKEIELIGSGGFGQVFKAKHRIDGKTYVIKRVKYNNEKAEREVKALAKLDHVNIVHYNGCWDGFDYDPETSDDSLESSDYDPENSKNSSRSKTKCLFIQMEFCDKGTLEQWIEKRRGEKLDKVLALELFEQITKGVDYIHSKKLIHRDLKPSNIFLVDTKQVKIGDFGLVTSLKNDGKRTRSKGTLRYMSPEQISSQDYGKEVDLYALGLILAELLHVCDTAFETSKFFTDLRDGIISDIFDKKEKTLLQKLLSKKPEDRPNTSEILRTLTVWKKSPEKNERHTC
Chain of 476 purified kinases (Homo sapiens, UniProt P35916) (P35916 25-1363): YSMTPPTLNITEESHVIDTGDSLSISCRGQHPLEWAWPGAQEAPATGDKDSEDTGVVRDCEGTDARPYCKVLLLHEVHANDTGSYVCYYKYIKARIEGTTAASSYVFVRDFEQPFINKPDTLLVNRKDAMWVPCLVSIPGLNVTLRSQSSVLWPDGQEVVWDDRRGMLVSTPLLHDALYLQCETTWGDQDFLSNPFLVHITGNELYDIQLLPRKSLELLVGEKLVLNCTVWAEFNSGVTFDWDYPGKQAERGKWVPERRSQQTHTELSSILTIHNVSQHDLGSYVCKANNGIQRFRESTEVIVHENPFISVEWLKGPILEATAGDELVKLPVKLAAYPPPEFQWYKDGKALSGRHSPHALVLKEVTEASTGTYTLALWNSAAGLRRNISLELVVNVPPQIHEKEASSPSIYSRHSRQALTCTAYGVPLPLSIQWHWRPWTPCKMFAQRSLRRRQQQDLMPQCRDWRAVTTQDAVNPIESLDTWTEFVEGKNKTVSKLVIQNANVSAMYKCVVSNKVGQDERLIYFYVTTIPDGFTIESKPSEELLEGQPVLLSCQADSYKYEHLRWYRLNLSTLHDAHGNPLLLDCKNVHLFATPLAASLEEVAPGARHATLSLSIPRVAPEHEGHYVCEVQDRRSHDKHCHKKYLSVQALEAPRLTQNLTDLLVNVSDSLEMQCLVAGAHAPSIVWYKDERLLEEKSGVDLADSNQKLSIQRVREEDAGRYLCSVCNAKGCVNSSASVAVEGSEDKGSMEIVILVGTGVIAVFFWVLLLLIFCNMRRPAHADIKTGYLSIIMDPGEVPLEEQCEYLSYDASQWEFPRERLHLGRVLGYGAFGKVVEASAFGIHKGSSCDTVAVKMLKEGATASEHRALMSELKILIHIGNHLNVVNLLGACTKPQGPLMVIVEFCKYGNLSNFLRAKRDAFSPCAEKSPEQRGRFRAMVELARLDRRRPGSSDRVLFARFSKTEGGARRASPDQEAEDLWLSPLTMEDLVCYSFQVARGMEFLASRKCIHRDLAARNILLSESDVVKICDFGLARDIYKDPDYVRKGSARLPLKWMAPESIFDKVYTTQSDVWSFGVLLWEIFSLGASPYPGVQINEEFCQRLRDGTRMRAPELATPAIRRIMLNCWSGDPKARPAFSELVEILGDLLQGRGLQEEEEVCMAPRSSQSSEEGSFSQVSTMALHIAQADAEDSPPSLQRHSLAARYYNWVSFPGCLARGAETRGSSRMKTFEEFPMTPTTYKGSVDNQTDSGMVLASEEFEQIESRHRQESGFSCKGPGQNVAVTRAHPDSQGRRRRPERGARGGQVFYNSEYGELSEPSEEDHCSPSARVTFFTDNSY
Chain of 476 purified kinases (Homo sapiens, UniProt P22612) (P22612 whole entry): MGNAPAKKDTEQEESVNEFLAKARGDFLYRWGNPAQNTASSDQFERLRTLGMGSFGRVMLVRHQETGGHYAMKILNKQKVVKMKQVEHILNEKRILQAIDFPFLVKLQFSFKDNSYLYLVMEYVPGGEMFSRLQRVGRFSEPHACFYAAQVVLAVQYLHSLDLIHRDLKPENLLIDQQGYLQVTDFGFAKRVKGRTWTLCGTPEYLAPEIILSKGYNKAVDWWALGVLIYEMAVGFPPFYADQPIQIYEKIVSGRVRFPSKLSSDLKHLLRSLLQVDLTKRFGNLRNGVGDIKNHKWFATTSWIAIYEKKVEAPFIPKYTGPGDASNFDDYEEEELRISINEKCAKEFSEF
Chain of 476 purified kinases (Homo sapiens, UniProt P06241) (P06241 whole entry): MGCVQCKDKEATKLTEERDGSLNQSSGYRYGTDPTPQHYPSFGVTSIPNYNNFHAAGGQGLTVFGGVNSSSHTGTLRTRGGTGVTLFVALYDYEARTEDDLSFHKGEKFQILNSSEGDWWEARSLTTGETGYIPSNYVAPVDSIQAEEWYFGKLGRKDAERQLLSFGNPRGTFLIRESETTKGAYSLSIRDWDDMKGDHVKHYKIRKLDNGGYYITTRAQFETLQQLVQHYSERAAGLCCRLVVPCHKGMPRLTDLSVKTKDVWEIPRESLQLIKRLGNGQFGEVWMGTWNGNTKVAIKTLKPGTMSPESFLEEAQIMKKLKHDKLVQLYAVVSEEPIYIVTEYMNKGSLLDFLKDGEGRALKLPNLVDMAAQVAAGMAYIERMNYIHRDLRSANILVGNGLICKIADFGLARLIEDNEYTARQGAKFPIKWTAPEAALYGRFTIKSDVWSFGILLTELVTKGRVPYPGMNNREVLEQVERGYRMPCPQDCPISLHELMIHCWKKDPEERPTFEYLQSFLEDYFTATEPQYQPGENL
Chain of 476 purified kinases (Homo sapiens, UniProt P52564, S207E/T211E) (P52564 whole entry S207E/T211E): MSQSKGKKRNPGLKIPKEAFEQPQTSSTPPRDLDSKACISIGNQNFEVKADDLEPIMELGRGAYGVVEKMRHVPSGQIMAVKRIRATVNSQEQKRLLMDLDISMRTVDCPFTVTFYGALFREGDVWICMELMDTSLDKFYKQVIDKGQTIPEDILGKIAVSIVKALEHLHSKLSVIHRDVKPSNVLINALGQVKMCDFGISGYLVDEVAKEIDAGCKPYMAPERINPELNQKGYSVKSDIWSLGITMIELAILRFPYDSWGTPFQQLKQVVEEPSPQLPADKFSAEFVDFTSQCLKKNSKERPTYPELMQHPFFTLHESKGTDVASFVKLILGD

Cc1nc(Nc2ncc(C(=O)Nc3c(C)cccc3Cl)s2)cc(N2CCN(CCO)CC2)n1 [Dasatinib]
TLK1 (LanthaScreen Binding) (476 purified kinases [1]; 10 nM compound): -1 | TLK1 (LanthaScreen Binding) (476 purified kinases [1]; 10 nM compound + 10 µM FKBP12): 4 | BMPR2 (LanthaScreen Binding) (476 purified kinases [2]; 10 nM compound): 0 | BMPR2 (LanthaScreen Binding) (476 purified kinases [2]; 10 nM compound + 10 µM FKBP12): 3 | STK39 (STLK3) (LanthaScreen Binding) (476 purified kinases [3]; 10 nM compound): 4 | STK39 (STLK3) (LanthaScreen Binding) (476 purified kinases [3]; 10 nM compound + 10 µM FKBP12): -5 | CDK5/p25 (kinase profiling) (476 purified kinases [4]; 10 nM): 2 | CDK5/p35 (kinase profiling) (476 purified kinases [4]; 10 nM): 4 | CDK5/p25 (kinase profiling) (476 purified kinases [4]; 10 nM + 10 µM FKBP12): 2 | CDK5/p35 (kinase profiling) (476 purified kinases [4]; 10 nM + 10 µM FKBP12): 2 | PIK3C2G (PI3K-C2 gamma) (Adapta) (476 purified kinases [5]; 10 nM compound): 3 | PIK3C2G (PI3K-C2 gamma) (Adapta) (476 purified kinases [5]; 10 nM compound + 10 µM FKBP12): -4 | HIPK2 (kinase profiling) (476 purified kinases [6]; 10 nM): 8 | HIPK2 (kinase profiling) (476 purified kinases [6]; 10 nM + 10 µM FKBP12): 11 | MASTL (LanthaScreen Binding) (476 purified kinases [7]; 10 nM compound): 0 | MASTL (LanthaScreen Binding) (476 purified kinases [7]; 10 nM compound + 10 µM FKBP12): -1 | CDK1/cyclin B (kinase profiling) (476 purified kinases [8]; 10 nM): 3 | CDK1/cyclin B (kinase profiling) (476 purified kinases [8]; 10 nM + 10 µM FKBP12): 3 | CDK13/cyclin K (LanthaScreen Binding) (476 purified kinases [9]; 10 nM compound): 4 | CDK13/cyclin K (LanthaScreen Binding) (476 purified kinases [9]; 10 nM compound + 10 µM FKBP12): -3 | ADRBK1 (GRK2) (kinase profiling) (476 purified kinases [10]; 10 nM): 2 | ADRBK1 (GRK2) (kinase profiling) (476 purified kinases [10]; 10 nM + 10 µM FKBP12): 3 | SRPK1 (kinase profiling) (476 purified kinases [11]; 10 nM): 4 | SRPK1 (kinase profiling) (476 purified kinases [11]; 10 nM + 10 µM FKBP12): 3 | EIF2AK2 (PKR) (LanthaScreen Binding) (476 purified kinases [12]; 10 nM compound): -5 | EIF2AK2 (PKR) (LanthaScreen Binding) (476 purified kinases [12]; 10 nM compound + 10 µM FKBP12): -10 | PRKACG (PRKAC gamma) (LanthaScreen Binding) (476 purified kinases [13]; 10 nM compound): 0 | PRKACG (PRKAC gamma) (LanthaScreen Binding) (476 purified kinases [13]; 10 nM compound + 10 µM FKBP12): 6 | MAP2K6 (MKK6) S207E T211E (LanthaScreen Binding) (476 purified kinases [14]; 10 nM compound): -2 | MAP2K6 (MKK6) S207E T211E (LanthaScreen Binding) (476 purified kinases [14]; 10 nM compound + 10 µM FKBP12): 2 | CDK4/cyclin D1 (kinase profiling) (476 purified kinases [15]; 10 nM): 6 | CDK4/cyclin D3 (kinase profiling) (476 purified kinases [15]; 10 nM): 9 | CDK4/cyclin D1 (kinase profiling) (476 purified kinases [15]; 10 nM + 10 µM FKBP12): -10 | CDK4/cyclin D3 (kinase profiling) (476 purified kinases [15]; 10 nM + 10 µM FKBP12): 12 | CAMK1 (CaMK1) (kinase profiling) (476 purified kinases [16]; 10 nM): -14 | CAMK1 (CaMK1) (kinase profiling) (476 purified kinases [16]; 10 nM + 10 µM FKBP12): 28 | STK16 (PKL12) (LanthaScreen Binding) (476 purified kinases [17]; 10 nM compound): -1 | STK16 (PKL12) (LanthaScreen Binding) (476 purified kinases [17]; 10 nM compound + 10 µM FKBP12): -1 | BMPR1B (ALK6) (LanthaScreen Binding) (476 purified kinases [18]; 10 nM compound): 7 | BMPR1B (ALK6) (LanthaScreen Binding) (476 purified kinases [18]; 10 nM compound + 10 µM FKBP12): -9 | CSNK1A1 (CK1 alpha 1) (kinase profiling) (476 purified kinases [19]; 10 nM): -1 | CSNK1A1 (CK1 alpha 1) (kinase profiling) (476 purified kinases [19]; 10 nM + 10 µM FKBP12): 8 | FYN (kinase profiling) (476 purified kinases [20]; 10 nM): 100 | FYN (kinase profiling) (476 purified kinases [20]; 10 nM + 10 µM FKBP12): 101 | PRKACB (PRKAC beta) (LanthaScreen Binding) (476 purified kinases [21]; 10 nM compound): -9 | PRKACB (PRKAC beta) (LanthaScreen Binding) (476 purified kinases [21]; 10 nM compound + 10 µM FKBP12): -3 | ADRBK2 (GRK3) (kinase profiling) (476 purified kinases [22]; 10 nM): -2 | ADRBK2 (GRK3) (kinase profiling) (476 purified kinases [22]; 10 nM + 10 µM FKBP12): 8 | PRKG2 (PKG2) (kinase profiling) (476 purified kinases [23]; 10 nM): 1 | PRKG2 (PKG2) (kinase profiling) (476 purified kinases [23]; 10 nM + 10 µM FKBP12): -7 | MAP3K14 (NIK) (LanthaScreen Binding) (476 purified kinases [24]; 10 nM compound): -2 | MAP3K14 (NIK) (LanthaScreen Binding) (476 purified kinases [24]; 10 nM compound + 10 µM FKBP12): 2 | FLT4 (VEGFR3) (kinase profiling) (476 purified kinases [25]; 10 nM): 7 | FLT4 (VEGFR3) (kinase profiling) (476 purified kinases [25]; 10 nM + 10 µM FKBP12): 0 | ACVR2B (LanthaScreen Binding) (476 purified kinases [26]; 10 nM compound): 5 | ACVR2B (LanthaScreen Binding) (476 purified kinases [26]; 10 nM compound + 10 µM FKBP12): 12 | DAPK3 (ZIPK) (kinase profiling) (476 purified kinases [27]; 10 nM): 2 | DAPK3 (ZIPK) (kinase profiling) (476 purified kinases [27]; 10 nM + 10 µM FKBP12): 0 | TESK2 (LanthaScreen Binding) (476 purified kinases [28]; 10 nM compound): 30 | TESK2 (LanthaScreen Binding) (476 purified kinases [28]; 10 nM compound + 10 µM FKBP12): 35 | TLK2 (LanthaScreen Binding) (476 purified kinases [29]; 10 nM compound): -3 | TLK2 (LanthaScreen Binding) (476 purified kinases [29]; 10 nM compound + 10 µM FKBP12): -3 | PKN2 (PRK2) (LanthaScreen Binding) (476 purified kinases [30]; 10 nM compound): 4 | PKN2 (PRK2) (LanthaScreen Binding) (476 purified kinases [30]; 10 nM compound + 10 µM FKBP12): 5 | SYK (kinase profiling) (476 purified kinases [31]; 10 nM): 6 | SYK (kinase profiling) (476 purified kinases [31]; 10 nM + 10 µM FKBP12): 8 | MAP3K5 (ASK1) (LanthaScreen Binding) (476 purified kinases [32]; 10 nM compound): 0 | MAP3K5 (ASK1) (LanthaScreen Binding) (476 purified kinases [32]; 10 nM compound + 10 µM FKBP12): -1 | PIP5K1A (Adapta) (476 purified kinases [33]; 10 nM compound): -11 | PIP5K1A (Adapta) (476 purified kinases [33]; 10 nM compound + 10 µM FKBP12): -9 | MAP4K4 (HGK) (kinase profiling) (476 purified kinases [34]; 10 nM): 10 | MAP4K4 (HGK) (kinase profiling) (476 purified kinases [34]; 10 nM + 10 µM FKBP12): 12 | MINK1 (kinase profiling) (476 purified kinases [35]; 10 nM): 10 | MINK1 (kinase profiling) (476 purified kinases [35]; 10 nM + 10 µM FKBP12): 10
